{"source": "patent US20240400577A1", "about": "“MODULATORS OF PROTEIN KINASES” (VIBLIOME THERAPEUTICS, LLC, priority 2021, published 2024)", "test_in_all_cases": "Kinase panel enzymatic inhibition assay (Nanosyn)", "assay_type_in_all_cases": "biochemical", "key": {"[1]": {"molecular_target": "T1, ITK (Homo sapiens, UniProt Q08881)", "T1 construct": "Nanosyn (contract laboratory that ran the panel)", "T1 sequence (Q08881 1-620)": "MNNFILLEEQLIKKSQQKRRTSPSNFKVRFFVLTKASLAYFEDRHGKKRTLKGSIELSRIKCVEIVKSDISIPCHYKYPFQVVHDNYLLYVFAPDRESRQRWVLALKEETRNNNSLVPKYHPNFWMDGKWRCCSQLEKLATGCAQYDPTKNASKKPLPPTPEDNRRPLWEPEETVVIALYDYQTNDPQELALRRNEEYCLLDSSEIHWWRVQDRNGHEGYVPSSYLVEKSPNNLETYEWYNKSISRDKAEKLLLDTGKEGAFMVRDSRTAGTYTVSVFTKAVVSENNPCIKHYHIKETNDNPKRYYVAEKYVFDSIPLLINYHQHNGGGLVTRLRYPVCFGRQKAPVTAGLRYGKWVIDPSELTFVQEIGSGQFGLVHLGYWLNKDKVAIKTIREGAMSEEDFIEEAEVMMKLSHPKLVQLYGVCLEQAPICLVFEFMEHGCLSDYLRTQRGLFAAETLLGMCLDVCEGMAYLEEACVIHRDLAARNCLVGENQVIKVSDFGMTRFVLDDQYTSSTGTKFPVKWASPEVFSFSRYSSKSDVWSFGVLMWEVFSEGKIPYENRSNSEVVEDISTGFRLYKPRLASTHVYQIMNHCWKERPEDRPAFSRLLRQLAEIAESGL", "settings": "ATP at Km; 30-minute pre-incubation; read-out: kinase inhibition in terms of IC50, ITK", "outline": "(§1)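 Read-out is percent inhibition or IC50, obtained by mobility shift, ADP detection or time-resolved fluorescence detection. Each kinase was run with ATP at its Km, and compound at 5 μM was pre-incubated for 30 minutes.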"}, "[2]": {"molecular_target": "T2, TYRO3 (Homo sapiens, UniProt Q06418)", "T2 construct": "purchased Nanosyn", "T2 sequence (Q06418 41-890)": "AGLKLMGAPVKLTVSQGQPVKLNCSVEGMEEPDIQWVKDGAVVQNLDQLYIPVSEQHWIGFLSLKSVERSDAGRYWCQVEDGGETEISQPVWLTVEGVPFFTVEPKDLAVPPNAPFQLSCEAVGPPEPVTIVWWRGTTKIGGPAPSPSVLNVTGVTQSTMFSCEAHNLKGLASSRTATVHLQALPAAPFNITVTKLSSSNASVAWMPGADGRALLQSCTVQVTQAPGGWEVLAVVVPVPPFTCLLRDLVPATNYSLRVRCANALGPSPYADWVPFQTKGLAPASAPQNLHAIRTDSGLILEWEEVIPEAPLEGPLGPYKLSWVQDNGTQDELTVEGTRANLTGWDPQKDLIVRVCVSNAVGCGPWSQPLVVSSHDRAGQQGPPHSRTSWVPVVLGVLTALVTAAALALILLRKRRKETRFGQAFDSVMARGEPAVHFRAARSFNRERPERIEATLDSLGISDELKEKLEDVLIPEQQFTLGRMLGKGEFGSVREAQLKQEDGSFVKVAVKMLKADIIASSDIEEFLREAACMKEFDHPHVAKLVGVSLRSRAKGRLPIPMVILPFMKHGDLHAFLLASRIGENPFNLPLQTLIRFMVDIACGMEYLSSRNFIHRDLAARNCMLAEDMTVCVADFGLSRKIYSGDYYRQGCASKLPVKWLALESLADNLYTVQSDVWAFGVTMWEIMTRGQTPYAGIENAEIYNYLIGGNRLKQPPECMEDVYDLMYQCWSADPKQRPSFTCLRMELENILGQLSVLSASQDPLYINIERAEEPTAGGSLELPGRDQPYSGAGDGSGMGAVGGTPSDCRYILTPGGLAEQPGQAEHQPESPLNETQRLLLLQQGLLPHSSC", "settings": "ATP at Km; 30-minute pre-incubation; read-out: kinase inhibition in terms of IC50, TYRO3", "outline": "as §1"}, "[3]": {"molecular_target": "T3, RIPK1 (Homo sapiens, UniProt Q13546)", "T3 construct": "purchased Nanosyn", "T3 sequence (Q13546 1-671)": "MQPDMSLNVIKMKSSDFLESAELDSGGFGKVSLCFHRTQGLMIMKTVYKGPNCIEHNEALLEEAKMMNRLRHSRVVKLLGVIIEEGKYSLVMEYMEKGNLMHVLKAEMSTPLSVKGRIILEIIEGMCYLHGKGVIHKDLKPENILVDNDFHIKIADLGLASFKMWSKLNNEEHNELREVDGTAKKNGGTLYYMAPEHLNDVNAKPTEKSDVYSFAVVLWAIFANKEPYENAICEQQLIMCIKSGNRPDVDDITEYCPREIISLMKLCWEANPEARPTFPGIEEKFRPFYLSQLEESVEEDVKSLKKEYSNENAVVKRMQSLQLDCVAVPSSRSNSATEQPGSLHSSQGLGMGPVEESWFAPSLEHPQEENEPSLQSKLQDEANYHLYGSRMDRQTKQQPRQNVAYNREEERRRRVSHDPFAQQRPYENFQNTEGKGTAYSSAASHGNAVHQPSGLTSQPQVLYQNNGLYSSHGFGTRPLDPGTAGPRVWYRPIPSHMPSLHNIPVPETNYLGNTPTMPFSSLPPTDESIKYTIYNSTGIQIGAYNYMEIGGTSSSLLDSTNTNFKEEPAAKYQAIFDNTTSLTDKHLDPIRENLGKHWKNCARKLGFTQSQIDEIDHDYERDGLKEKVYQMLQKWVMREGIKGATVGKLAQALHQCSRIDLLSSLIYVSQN", "settings": "ATP at Km; 30-minute pre-incubation; read-out: kinase inhibition in terms of IC50, RIPK1", "outline": "as §1"}, "[4]": {"molecular_target": "T4, RIPK2 (Homo sapiens, UniProt O43353)", "T4 construct": "purchased Nanosyn", "T4 sequence (O43353 whole entry)": "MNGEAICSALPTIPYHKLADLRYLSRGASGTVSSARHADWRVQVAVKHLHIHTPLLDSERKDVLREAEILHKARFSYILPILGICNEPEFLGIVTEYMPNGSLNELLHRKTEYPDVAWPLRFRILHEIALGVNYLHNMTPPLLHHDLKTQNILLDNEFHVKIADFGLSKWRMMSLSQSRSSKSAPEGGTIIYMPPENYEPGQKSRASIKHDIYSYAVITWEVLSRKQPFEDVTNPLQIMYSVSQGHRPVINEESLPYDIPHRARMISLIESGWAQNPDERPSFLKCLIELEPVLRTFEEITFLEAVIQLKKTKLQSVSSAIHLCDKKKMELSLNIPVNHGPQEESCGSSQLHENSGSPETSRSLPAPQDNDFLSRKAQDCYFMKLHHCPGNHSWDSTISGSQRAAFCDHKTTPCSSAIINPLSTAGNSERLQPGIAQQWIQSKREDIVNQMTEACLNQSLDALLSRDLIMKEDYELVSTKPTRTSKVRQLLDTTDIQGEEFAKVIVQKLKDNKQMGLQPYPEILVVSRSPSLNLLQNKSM", "settings": "ATP at Km; 30-minute pre-incubation; read-out: kinase inhibition in terms of IC50, RIPK2", "outline": "as §1"}, "[5]": {"molecular_target": "T5, RIPK3 (Homo sapiens, UniProt Q9Y572)", "T5 construct": "purchased Nanosyn", "T5 sequence (Q9Y572 whole entry)": "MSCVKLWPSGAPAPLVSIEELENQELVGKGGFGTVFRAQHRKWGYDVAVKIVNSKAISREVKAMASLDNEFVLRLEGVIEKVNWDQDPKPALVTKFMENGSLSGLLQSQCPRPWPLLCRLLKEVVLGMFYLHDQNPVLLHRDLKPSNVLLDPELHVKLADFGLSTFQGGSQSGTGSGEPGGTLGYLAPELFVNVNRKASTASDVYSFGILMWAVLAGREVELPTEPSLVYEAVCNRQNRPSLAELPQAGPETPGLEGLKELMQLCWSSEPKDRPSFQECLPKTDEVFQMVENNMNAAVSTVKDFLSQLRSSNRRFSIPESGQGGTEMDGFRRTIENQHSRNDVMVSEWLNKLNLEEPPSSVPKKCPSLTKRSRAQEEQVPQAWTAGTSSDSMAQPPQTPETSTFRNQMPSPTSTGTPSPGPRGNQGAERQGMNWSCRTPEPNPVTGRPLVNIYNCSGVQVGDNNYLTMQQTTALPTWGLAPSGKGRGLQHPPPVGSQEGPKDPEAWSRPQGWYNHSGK", "settings": "ATP at Km; 30-minute pre-incubation; read-out: kinase inhibition in terms of IC50, RIPK3", "outline": "as §1"}}, "note": "pIC50: −log10 of the molar value."}
{"smiles": "COc1cc2nccc(Oc3ccc(NC(=O)c4cc(S(C)(=O)=O)n(-c5ccc(F)cc5)n4)cc3F)c2cc1OC", "note": "[Ex73, N-(4-((6,7-dimethoxyquinolin-4-yl)oxy)-3-fluorophenyl)-1-(4-fluorophenyl)-5-(methylsulfonyl)-1H-pyrazole-3-carboxamide]", "values": [{"measurement": "pIC50", "setting": "[1]", "result": "5.00 to 6.00"}, {"measurement": "pIC50", "setting": "[2]", "result": "5.00 to 6.00"}]}
{"smiles": "COc1cc2nccc(Oc3ccc(NC(=O)c4cc(S(C)(=O)=O)n(-c5ccc(F)cc5)n4)c(F)c3)c2cc1OC", "note": "[Ex71, N-(4-((6,7-dimethoxyquinolin-4-yl)oxy)-2-fluorophenyl)-1-(4-fluorophenyl)-5-(methylsulfonyl)-1H-pyrazole-3-carboxamide]", "values": [{"measurement": "pIC50", "setting": "[1]", "result": "≤ 5.00"}, {"measurement": "pIC50", "setting": "[3]", "result": "≤ 5.00"}, {"measurement": "pIC50", "setting": "[4]", "result": "6.00 to 6.30"}, {"measurement": "pIC50", "setting": "[5]", "result": "5.00 to 6.00"}, {"measurement": "pIC50", "setting": "[2]", "result": "> 6.30"}]}
